Among the data in publication PMC4201327 (Organic letters, 2014) are Km values, retold here.

As a reminder, the Km is the substrate concentration at which the rate is half of its maximum.

The target in the assay is Egt1 (Neurospora crassa, UniProt Q7RX33). Put plainly: oxygen consumption, NeoFox oxygen electrode. Format: biochemical.
Egt1, sequence (Q7RX33 whole entry): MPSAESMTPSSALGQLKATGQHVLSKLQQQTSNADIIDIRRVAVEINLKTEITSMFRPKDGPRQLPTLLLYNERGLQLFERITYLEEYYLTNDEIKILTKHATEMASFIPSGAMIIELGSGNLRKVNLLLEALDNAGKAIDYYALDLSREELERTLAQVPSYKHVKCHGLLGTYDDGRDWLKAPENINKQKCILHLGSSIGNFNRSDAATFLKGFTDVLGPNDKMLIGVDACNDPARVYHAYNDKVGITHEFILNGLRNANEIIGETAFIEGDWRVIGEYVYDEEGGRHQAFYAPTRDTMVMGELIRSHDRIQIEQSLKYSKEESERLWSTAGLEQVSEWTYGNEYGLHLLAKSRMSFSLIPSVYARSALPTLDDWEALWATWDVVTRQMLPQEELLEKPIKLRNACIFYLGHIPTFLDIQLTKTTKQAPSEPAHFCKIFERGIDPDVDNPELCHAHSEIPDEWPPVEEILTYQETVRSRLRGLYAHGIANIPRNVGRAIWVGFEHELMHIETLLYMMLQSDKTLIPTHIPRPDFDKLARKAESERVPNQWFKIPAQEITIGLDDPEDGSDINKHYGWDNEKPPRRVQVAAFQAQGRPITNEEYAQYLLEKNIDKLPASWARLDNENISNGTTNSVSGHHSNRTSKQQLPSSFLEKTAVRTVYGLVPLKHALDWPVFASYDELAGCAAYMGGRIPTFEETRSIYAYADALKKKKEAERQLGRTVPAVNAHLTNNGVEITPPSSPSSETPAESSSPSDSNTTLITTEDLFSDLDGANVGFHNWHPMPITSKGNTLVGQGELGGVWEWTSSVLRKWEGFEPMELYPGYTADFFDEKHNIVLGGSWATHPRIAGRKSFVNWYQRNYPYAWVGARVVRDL

Take `N[C@@H](CCC(=O)N[C@@H](CS)C(=O)O)C(=O)O` [γ-Glu-Cys]: the Km worked out at 7.68 ± 1.11 mM.
In the case of `C[N+](C)(C)[C@@H](Cc1cnc[nH]1)C(=O)[O-]` [compound 2, hercynine] it was 0.436 ± 0.03 mM.
